Source: patent publication US20260265189A1, “NOVEL COMPOUND, AND PHARMACEUTICAL COMPOSITION COMPRISING SAME AS ACTIVE INGREDIENT” (SAPIENSBIO INC., priority 2022, published 2026)

test system: α-SMA expression in MRC5 cells; assay: inhibition of α-SMA expression in MRC5 cells, image screening method; format: cell-based; details: Homo sapiens; MRC5, compound 10 μM, TGF-β1 5 ng/mL, 72 hours, relative to TGF-β1 alone; read-out: Inhibitory activity (α-SMA expression inhibition)
Experimental: The ability of the compounds according to the present invention to inhibit the expression of α-SMA, which is a biomarker for pulmonary fibrosis, was evaluated by an image screening method. MRC5 cells were treated with the compound (10 μM) or DMSO under the condition of TGF-31 (5 ng/mL). 72 hours later, the cells were fixed with a 4% formaldehyde solution, treated with a 0.1% Triton-x100 solution, and treated with a 1% BSA solution to mask non-specific binding caused by antibodies. Anti-α-SMA-FITC (Sigma Aldrich) and anti-GAPDH (Cell Signaling Technology) were used as primary antibodies, and anti-mouse-TRITC was used as a secondary antibody. Imaging and analysis of the results were performed using Cytation5_Gen5_Version 3.12.08 (Bio Tek). Relative to the α-SMA expression level when TGF-31 was treated alone, the α-SMA expression level when both the compound and TGF-31 were treated was calculated as the ability of α-SMA expression inhibition of the corresponding compound.

| Compound | inhibition at 10 µM |
| --- | --- |
| CC(C)CN1CCC(CNC(=O)N2CCN(c3ccc(F)cc3)c3cc(F)ccc32)CC1 [Compound 35, 6-fluoro-4-(4-fluorophenyl)-N-((1-isobutylpiperidin-4-yl)methyl)-3,4-dihydroquinoxaline-1(2H)-carboxamide] | ≥ 70% |
| CC(C)N1CCC(CNC(=O)N2CCN(c3ccc(F)cc3)c3cc(F)ccc32)CC1 [Compound 36, 6-fluoro-4-(4-fluorophenyl)-N-((1-isopropylpiperidin-4-yl)methyl)-3,4-dihydroquinoxaline-1(2H)-carboxamide] | 50 to 70% |
| O=C(NCc1c[nH]cn1)N1CCN(c2ccc(F)cc2)c2cc(F)ccc21 [Compound 37, N-((1H-imidazol-4-)methyl)-6-fluoro-4-(4-fluorophenyl)-3,4-dihydroquinoxaline-1(2H)-carboxamide] | 30 to 50% |
| COC1CCN(C(=O)N2CCN(c3ccc(F)cc3)c3cc(F)ccc32)C1 (stereo not drawn) [Compound 40, (6-fluoro-4-(4-fluorophenyl)-3,4-dihydroquinoxalin-1(2H)-yl)(3-methoxypyrrolidin-1-yl)methanone] | 10 to 30% |
| O=C(NC1CNC1)N1CCN(c2ccc(F)cc2)c2cc(F)ccc21 [Compound 41, N-(azetidin-3-yl)-6-fluoro-4-(4-fluorophenyl)-3,4-dihydroquinoxaline-1(2H)-carboxamide] | 30 to 50% |
| CC(C)CN1CC(NC(=O)N2CCN(c3ccc(F)cc3)c3cc(F)ccc32)C1 [Compound 43, 6-fluoro-4-(4-fluorophenyl)-N-(1-isobutylazetidin-3-yl)-3,4-dihydroquinoxaline-1(2H)-carboxamide] | ≥ 70% |
| CN1CC(CNC(=O)N2CCN(c3ccc(F)cc3)c3cc(F)ccc32)C1 [Compound 45, 6-fluoro-4-(4-fluorophenyl)-N-((1-methylazetidin-3-yl)methyl)-3,4-dihydroquinoxaline-1(2H)-carboxamide] | 50 to 70% |
| CC(C)N1CC(CNC(=O)N2CCN(c3ccc(F)cc3)c3cc(F)ccc32)C1 [Compound 46, 6-fluoro-4-(4-fluorophenyl)-N-((1-isopropylazetidin-3-yl)methyl)-3,4-dihydroquinoxaline-1(2H)-carboxamide] | 30 to 50% |
| CC(C)CN1CC(CNC(=O)N2CCN(c3ccc(F)cc3)c3cc(F)ccc32)C1 [Compound 47, 6-fluoro-4-(4-fluorophenyl)-N-((1-isobutylazetidin-3-yl)methyl)-3,4-dihydroquinoxaline-1(2H)-carboxamide] | 50 to 70% |
| O=C(NCC1CCOC1)N1CCN(c2ccc(F)cc2)c2cc(F)ccc21 (stereo not drawn) [Compound 48, 6-fluoro-4-(4-fluorophenyl)-N-((tetrahydrofuran-3-yl)methyl)-3,4-dihydroquinoxaline-1(2H)-carboxamide] | 10 to 30% |
| O=C(N[C@H]1CCNC1)N1CCN(c2ccc(F)cc2)c2ccccc21 [Compound 49, (S)-4-(4-fluorophenyl)-N-(pyrrolidin-3-yl)-3,4-dihydroquinoxaline-1(2H)-carboxamide] | 10 to 30% |
| O=C(NC1CCNCC1)N1CCN(c2ccc(F)cc2)c2ccccc21 [Compound 50, 4-(4-fluorophenyl)-N-(piperidin-4-yl)-3,4-dihydroquinoxaline-1(2H)-carboxamide] | 30 to 50% |
| O=C(NCC1CCOCC1)N1CCN(c2ccc(F)cc2)c2ccccc21 [Compound 52, 4-(4-fluorophenyl)-N-((tetrahydro-2H-pyran-4-yl)methyl)-3,4-dihydroquinoxaline-1(2H)-carboxamide] | 10 to 30% |
| O=C(NC[C@H]1CCNC1)N1CCN(c2ccc(F)cc2)c2ccccc21 [Compound 53, (S)-4-(4-fluorophenyl)-N-(pyrrolidin-3-ylmethyl)-3,4-dihydroquinoxaline-1(2H)-carboxamide] | 10 to 30% |
| CN1CC[C@H](CNC(=O)N2CCN(c3ccc(F)cc3)c3ccccc32)C1 [Compound 54, (R)-4-(4-fluorophenyl)-N-((1-methylpyrrolidin-3-yl)methyl)-3,4-dihydroquinoxaline-1(2H)-carboxamide] | 30 to 50% |
| CC(C)N1CC[C@H](CNC(=O)N2CCN(c3ccc(F)cc3)c3ccccc32)C1 [Compound 55, (R)-4-(4-fluorophenyl)-N-((1-isopropylpyrrolidin-3-yl)methyl)-3,4-dihydroquinoxaline-1(2H)-carboxamide] | 30 to 50% |
| CC(C)CN1CC[C@H](CNC(=O)N2CCN(c3ccc(F)cc3)c3ccccc32)C1 [Compound 56, (R)-4-(4-fluorophenyl)-N-((1-isobutylpyrrolidin-3-yl)methyl)-3,4-dihydroquinoxaline-1(2H)-carboxamide] | 30 to 50% |
| O=C(NC[C@H]1CCCN1)N1CCN(c2ccc(F)cc2)c2ccccc21 [Compound 57, (R)-4-(4-fluorophenyl)-N-(pyrrolidin-2-ylmethyl)-3,4-dihydroquinoxaline-1(2H)-carboxamide] | 30 to 50% |

| Compound | inhibition at 10 µM |
| --- | --- |
| CN1CC[C@@H](CNC(=O)N2CCN(c3ccc(F)cc3)c3ccccc32)C1 [Compound 58, (S)-4-(4-fluorophenyl)-N-((1-methylpyrrolidin-3-yl)methyl)-3,4-dihydroquinoxaline-1(2H)-carboxamide] | 30 to 50% |
| CC(C)N1CC[C@@H](CNC(=O)N2CCN(c3ccc(F)cc3)c3ccccc32)C1 [Compound 59, (S)-4-(4-fluorophenyl)-N-((1-isopropylpyrrolidin-3-yl)methyl)-3,4-dihydroquinoxaline-1(2H)-carboxamide] | 30 to 50% |
| CC(C)CN1CC[C@@H](CNC(=O)N2CCN(c3ccc(F)cc3)c3ccccc32)C1 [Compound 60, (S)-4-(4-fluorophenyl)-N-((1-isobutylpyrrolidin-3-yl)methyl)-3,4-dihydroquinoxaline-1(2H)-carboxamide] | 50 to 70% |
| CC(C)CN1CC(CNC(=O)N2CCN(c3ccc(F)cc3)c3ccccc32)C1 [Compound 61, 4-(4-fluorophenyl)-N-((1-isobutylazetidin-3-yl)methyl)-3,4-dihydroquinoxaline-1(2H)-carboxamide] | 50 to 70% |
| O=C(NCC1CCNCC1)N1CCN(c2ccc(F)cc2)c2ccccc21 [Compound 62, 4-(4-fluorophenyl)-N-(piperidin-4-ylmethyl)-3,4-dihydroquinoxaline-1(2H)-carboxamide] | 30 to 50% |
| CC(C)N1CCC(CNC(=O)N2CCN(c3ccc(F)cc3)c3ccccc32)CC1 [Compound 63, 4-(4-fluorophenyl)-N-((1-isopropylpiperidin-4-yl)methyl)-3,4-dihydroquinoxaline-1(2H)-carboxamide] | 30 to 50% |
| CC(C)CN1CCC(CNC(=O)N2CCN(c3ccc(F)cc3)c3ccccc32)CC1 [Compound 64, 4-(4-fluorophenyl)-N-((1-isobutylpiperidin-4-yl)methyl)-3,4-dihydroquinoxaline-1(2H)-carboxamide] | ≥ 70% |
| O=C(N[C@@H]1CCNC1)N1CCN(c2ccccc2)c2cc(F)ccc21 [Compound 65, (R)-6-fluoro-4-phenyl-N-(pyrrolidin-3-yl)-3,4-dihydroquinoxaline-1(2H)-carboxamide] | 30 to 50% |
| O=C(N1CCCCC1)N1CCN(c2ccccc2Cl)c2ccccc21 [Compound 66, (4-(2-chlorophenyl)-3,4-dihydroquinoxalin-1(2H)-yl)(piperidin-1-yl)methanone] | 50 to 70% |
| O=C(N1CCCC1)N1CCN(c2ccccc2Cl)c2ccccc21 [Compound 67] | 30 to 50% |
| CN1CCN(C(=O)N2CCN(c3ccccc3Cl)c3ccccc32)CC1 [Compound 68, (4-(2-chlorophenyl)-3,4-dihydroquinoxalin-1(2H)-yl)(4-methylpiperazin-1-yl)methanone] | 30 to 50% |
| CC(C)N1CC[C@H](NC(=O)N2CCN(c3ccccn3)c3ccccc32)C1 [Compound 69, (S)-N-(1-isopropylpyrrolidin-3-yl)-4-(pyridin-2-yl)-3,4-dihydroquinoxaline-1(2H)-carboxamide] | 10 to 30% |
| CC(=O)N1CC[C@@H](NC(=O)N2CCN(c3ccccn3)c3ccccc32)C1 [Compound 70, (R)-N-(1-acetylpyrrolidin-3-yl)-4-(pyridin-2-yl)-3,4-dihydroquinoxaline-1(2H)-carboxamide] | 10 to 30% |
| O=C(NC[C@H]1CCNC1)N1CCN(c2ccccn2)c2ccccc21 [Compound 71, (S)-4-(pyridin-2-yl)-N-(pyrrolidin-3-ylmethyl)-3,4-dihydroquinoxaline-1(2H)-carboxamide] | 30 to 50% |
| O=C(NC[C@H]1CCCN1)N1CCN(c2ccccn2)c2ccccc21 [Compound 72, (R)-4-(pyridin-2-yl)-N-(pyrrolidin-2-ylmethyl)-3,4-dihydroquinoxaline-1(2H)-carboxamide] | 30 to 50% |
| O=C(N[C@@H]1CCOC1)N1CCN(c2cccnc2)c2ccccc21 [Compound 73, (R)-4-(pyridin-3-yl)-N-(tetrahydrofuran-3-yl)-3,4-dihydroquinoxaline-1(2H)-carboxamide] | 30 to 50% |
| O=C(NCC1CC1)N1CCN(c2ccncc2)c2ccccc21 [Compound 74, N-(cyclopropylmethyl)-4-(pyridin-4-yl)-3,4-dihydroquinoxaline-1(2H)-carboxamide] | 30 to 50% |
| N#Cc1ccc(N2CCN(C(=O)NC[C@H]3CCNC3)c3ccccc32)cc1 [Compound 79, (S)-4-(4-cyanophenyl)-N-(pyrrolidin-3-ylmethyl)-3,4-dihydroquinoxaline-1(2H)-carboxamide] | 10 to 30% |
